This is an account of results in ChEMBL document CHEMBL3739419, “Influence of Sugar Amine Regiochemistry on Digitoxigenin Neoglycoside Anticancer Activity” (ACS Med Chem Lett, 2015).

In this experiment the test system is A549. Briefly: Anticancer activity against human A549 cells by alamar blue assay. The class given is functional, cell-based.
Turning to `CON([C@H]1CC[C@@]2(C)[C@H](CC[C@@H]3[C@@H]2CC[C@]2(C)[C@@H](C4=CC(=O)OC4)CC[C@]32O)C1)[C@@H]1O[C@H](CO)[C@@H](O)[C@H](N)[C@H]1O`, half-maximal inhibition (IC50) required 34 nM.
With `CON([C@H]1CC[C@@]2(C)[C@H](CC[C@@H]3[C@@H]2CC[C@]2(C)[C@@H](C4=CC(=O)OC4)CC[C@]32O)C1)[C@@H]1O[C@H](CO)[C@@H](N)[C@H](O)[C@H]1O`, 20 nM corresponded to half-maximal inhibition (IC50).
In the case of `CON([C@H]1CC[C@@]2(C)[C@H](CC[C@@H]3[C@@H]2CC[C@]2(C)[C@@H](C4=CC(=O)OC4)CC[C@]32O)C1)[C@@H]1O[C@H](CO)[C@@H](N=[N+]=[N-])[C@H](O)[C@H]1O`, the IC50 (usually the midpoint of a concentration-inhibition curve) amounted to 130 nM.
Compound `CON([C@H]1CC[C@@]2(C)[C@H](CC[C@@H]3[C@@H]2CC[C@]2(C)[C@@H](C4=CC(=O)OC4)CC[C@]32O)C1)[C@@H]1OC[C@@H](O)[C@H](N=[N+]=[N-])[C@H]1O` registered an IC50 of 17 nM.
For the compound `CON([C@H]1CC[C@@]2(C)[C@H](CC[C@@H]3[C@@H]2CC[C@]2(C)[C@@H](C4=CC(=O)OC4)CC[C@]32O)C1)[C@@H]1O[C@H](CO)[C@@H](O)[C@H](O)[C@H]1O`, 1600 nM corresponded to half-maximal inhibition (IC50).
Turning to `CON([C@H]1CC[C@@]2(C)[C@H](CC[C@@H]3[C@@H]2CC[C@]2(C)[C@@H](C4=CC(=O)OC4)CC[C@]32O)C1)[C@@H]1OC[C@@H](N)[C@H](O)[C@H]1O`, the IC50 turned out to be 43 nM.
In turn, `CON([C@H]1CC[C@@]2(C)[C@H](CC[C@@H]3[C@@H]2CC[C@]2(C)[C@@H](C4=CC(=O)OC4)CC[C@]32O)C1)[C@@H]1O[C@H](CO)[C@@H](O)[C@H](N=[N+]=[N-])[C@H]1O` yielded an IC50 of 390 nM.
In the case of `CON([C@H]1CC[C@@]2(C)[C@H](CC[C@@H]3[C@@H]2CC[C@]2(C)[C@@H](C4=CC(=O)OC4)CC[C@]32O)C1)[C@@H]1OC[C@@H](O)[C@H](N)[C@H]1O`, the IC50 came to 10 nM.
On to `CON([C@H]1CC[C@@]2(C)[C@H](CC[C@@H]3[C@@H]2CC[C@]2(C)[C@@H](C4=CC(=O)OC4)CC[C@]32O)C1)[C@@H]1OC[C@@H](N=[N+]=[N-])[C@H](O)[C@H]1O`, for which the IC50 turned out to be 34 nM.
